According to US8580784B2, “Method for treating a disease related to the glucocorticoid receptor” (Santen Pharmaceutical Co., Ltd., priority 2006, dated 2013):

These molecules were tested against T1, Recombinant human GR (Homo sapiens, UniProt P04150) (assay: Evaluation test for binding activity to glucocorticoid receptor: receptor competitor assay by fluorescence polarization (Invitrogen GR competitor assay kit, cat No. P2816)). Conditions: 20 μM test compound solution, 10 μL per well plus 5 μL 4×GS1 and 5 μL 4×GR solution; room temperature 2 to 4 hours; a ratio of 100% or more is indicated by 100%.
T1 construct: purchased Invitrogen P2816
T1 sequence (P04150 1-777): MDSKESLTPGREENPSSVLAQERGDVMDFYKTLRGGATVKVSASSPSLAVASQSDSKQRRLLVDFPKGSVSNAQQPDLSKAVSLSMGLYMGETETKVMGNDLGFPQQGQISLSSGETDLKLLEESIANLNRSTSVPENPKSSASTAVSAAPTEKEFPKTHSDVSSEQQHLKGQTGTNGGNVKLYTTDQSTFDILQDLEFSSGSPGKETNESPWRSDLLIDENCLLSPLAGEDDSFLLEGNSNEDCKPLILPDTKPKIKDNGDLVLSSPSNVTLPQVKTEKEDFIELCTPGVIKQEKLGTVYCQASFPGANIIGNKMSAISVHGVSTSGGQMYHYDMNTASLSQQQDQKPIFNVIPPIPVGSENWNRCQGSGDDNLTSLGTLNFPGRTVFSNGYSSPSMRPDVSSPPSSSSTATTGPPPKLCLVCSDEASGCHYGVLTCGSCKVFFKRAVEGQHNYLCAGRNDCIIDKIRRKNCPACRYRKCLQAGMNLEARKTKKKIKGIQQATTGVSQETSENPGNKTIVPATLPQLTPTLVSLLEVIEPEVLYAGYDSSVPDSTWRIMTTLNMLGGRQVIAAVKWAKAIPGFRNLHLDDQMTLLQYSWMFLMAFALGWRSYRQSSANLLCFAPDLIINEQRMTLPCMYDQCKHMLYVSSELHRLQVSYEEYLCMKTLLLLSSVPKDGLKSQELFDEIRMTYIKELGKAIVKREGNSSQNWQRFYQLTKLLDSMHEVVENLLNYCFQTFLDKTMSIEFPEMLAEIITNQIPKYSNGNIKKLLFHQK
Procedure: A detailed explanation of this matter will be described in the section of “Pharmacological Test” in Examples described below. In order to find the usefulness of the present compound as a pharmaceutical, a glucocorticoid receptor competitor assay was carried out by a fluorescence polarization method by using a glucocorticoid receptor competitor assay kit (manufactured by Invitrogen, cat No. P2816) to study the glucocorticoid receptor binding activity of the present compound.
1. Evaluation Test for Binding Activity to Glucocorticoid Receptor (hereinafter referred to as “GR”)
In order to evaluate a binding activity to GR, a receptor competitor assay was carried out by a fluorescence polarization method. In the assay, a GR competitor assay kit (manufactured by Invitrogen, cat No. P2816) was used, and a procedure was carried out according to the protocol attached to the kit. Hereinafter, the specific method will be described.
(Preparation of Reagents)
GR screening buffer: A buffer containing 10 mM potassium phosphate (pH 7.4), 20 mM sodium molybdate (Na2MoO4), 0.1 mM ethylene diamine tetraacetic acid (EDTA), 5 mM dithiothreitol (DTT), 0.1 mM stabilizing peptide and 2% dimethylsulfoxide was prepared.
4×GS1 solution: Fluormone™ GS1, which is a fluorescent glucocorticoid ligand, was diluted with GR screening buffer, whereby a 4 nM solution was prepared.
4×GR solution: Recombinant human GR was diluted with GR screening buffer, whereby a 16 nM solution was prepared.
(Preparation of Test Compound Solution)
After a test compound was dissolved in dimethylsulfoxide, the resulting solution was diluted with GR screening buffer, whereby a 20 μM test compound solution was prepared.
(Test Method and Measurement Method)
1) The test compound solution was added in an amount of 10 μL into each well of a 384-well plate, and then, 4×GS1 solution and 4×GR solution were added in an amount of 5 μL into each well, respectively.
2) The plate was incubated in a dark place at room temperature for 2 to 4 hours.
3) By using a multimode plate reader, Analyst™ HT (manufactured by LJL Biosystems), fluorescence polarization of each well was measured. As the blank, a well containing GR screening buffer in place of the test compound and 4×GS1 solution was used.
4) The same procedure as that in the above 1) to 3) was carried out except that GR screening buffer was used in place of the test compound solution, and the obtained result was taken as the negative control.
5) The same procedure as that in the above 1) to 3) was carried out except that 2 mM dexamethasone was used in place of the test compound solution, and the obtained result was taken as the positive control.
(Calculation Equation of GR Binding Ratio)
A GR binding ratio (%) was calculated from the following equation. GR binding ratio(%)=100×[1−(fluorescence polarization of test compound solution−fluorescence polarization of positive control solution)/(fluorescence polarization of negative control solution−fluorescence polarization of positive control solution)] (Test Results and Discussion)

inhibition at 20 µM (stock) [%]	SMILES	inhibition at 20 µM [%]
100	COc1cc(OC(=O)c2occc2C)ccc1-c1ccc2c(c1CNc1cc(F)ccc1C)C(C)=CC(C)(C)N2 [Compound 1-42, 5-(5-Fluoro-2-methylphenylaminomethyl)-6-[2-methoxy-4-(3-methylfuran-2-ylcarbonyloxy)phenyl]-2,2,4-trimethyl-1,2-dihydroquinoline]	
96	COc1ccccc1NCc1c(-c2ccc(OC(=O)N3CCOCC3)cc2OC)ccc2c1C(C)=CC(C)(C)N2 [Compound 1-44, 6-[2-Methoxy-4-(morpholin-4-ylcarbonyloxy)phenyl]-5-(2-methoxyphenylaminomethyl)-2,2,4-trimethyl-1,2-dihydroquinoline]	
100	COc1cc(OC(=O)N2CCOCC2)ccc1-c1ccc2c(c1CNc1cc(F)ccc1C)C(C)=CC(C)(C)N2 [Compound 1-45, 5-(5-Fluoro-2-methylphenylaminomethyl)-6-[2-methoxy-4-(morpholin-4-ylcarbonyloxy)phenyl]-2,2,4-trimethyl-1,2-dihydroquinoline]	
	CCCS(=O)(=O)Oc1ccc(-c2ccc3c(c2CNc2ccccc2OC)C(C)=CC(C)(C)N3)c(OC)c1 [Compound 2-1, 5-(2-Methoxyphenylaminomethyl)-6-(2-methoxy-4-propylsulfonyloxyphenyl)-2,2,4-trimethyl-1,2-dihydroquioline]	100
100	COc1ccccc1NCc1c(-c2ccc(OS(=O)(=O)C(C)C)cc2OC)ccc2c1C(C)=CC(C)(C)N2 [Compound 2-2, 6-(4-Isopropylsulfonyloxy-2-methoxyphenyl)-5-(2-methoxyphenylaminomethyl)-2,2,4-trimethyl-1,2-dihydroquioline]	
93	COc1ccccc1NCc1c(-c2ccc(OS(C)(=O)=O)cc2OC)ccc2c1C(C)=CC(C)(C)N2 [Compound 2-5, 6-(2-Methoxy-4-methylsulfonyloxyphenyl)-5-(2-methoxyphenylaminomethyl)-2,2,4-trimethyl-1,2-dihydroquioline]	
100	CCCS(=O)(=O)Oc1ccc(-c2ccc3c(c2CNc2cc(F)ccc2C)C(C)=CC(C)(C)N3)c(OC)c1 [Compound 2-6, 5-(5-Fluoro-2-methylphenylaminomethyl)-6-(2-methoxy-4-propylsulfonyloxyphenyl)-2,2,4-trimethyl-1,2-dihydroquioline]	
100	COc1ccccc1NCc1c(-c2ccc(OS(=O)(=O)C3CC3)cc2OC)ccc2c1C(C)=CC(C)(C)N2 [Compound 2-7, 6-(4-Cyclopropylsulfonyloxy-2-methoxyphenyl)-5-(2-methoxyphenylaminomethyl)-2,2,4-trimethyl-1,2-dihydroquioline]	
100	COc1ccccc1NCc1c(-c2ccc(OS(=O)(=O)C3CCCC3)cc2OC)ccc2c1C(C)=CC(C)(C)N2 [Compound 2-10, 6-(4-Cyclopentylsulfonyloxy-2-methoxyphenyl)-5-(2-methoxyphenylaminomethyl)-2,2,4-trimethyl-1,2-dihydroquioline]	
100	COc1cc(OS(C)(=O)=O)ccc1-c1ccc2c(c1CNc1cc(F)ccc1C)C(C)=CC(C)(C)N2 [Compound 2-11, 5-(5-Fluoro-2-methylphenylaminomethyl)-6-(2-methoxy-4-methylsulfonyloxyphenyl)-2,2,4-trimethyl-1,2-dihydroquioline]	
	COc1ccccc1NCc1c(-c2ccc(OC(=O)Nc3cccnc3)cc2OC)ccc2c1C(C)=CC(C)(C)N2 [Compound 4-3, 5-(2-Methoxyphenylaminomethyl)-6-[2-methoxy-4-(pyridin-3-ylaminocarbonyloxy)phenyl]-2,2,4-trimethyl-1,2-dihydroquioline]	91
